# From ChEMBL document CHEMBL1135846, “In vivo active antimalarial isonitriles” (Bioorg Med Chem Lett, 2002)
# Assays:
# Plasmodium falciparum = assay: In vitro antimalarial activity for Plasmodium falciparum NF54; assay type: functional
# Mus musculus [1] = assay: In vivo antimalarial activity of compound against multidrug-resistant strain of Plasmodium yoelii in 5 Swiss mice (Mus musculus) treated at a dose of 25 mg/kg/day; assay type: functional
# Mus musculus [2] = assay: Antimalarial activity of compound against multidrug-resistant strain of Plasmodium yoelii in 5 Swiss mice (Mus musculus) treated at a dose of 50 mg/kg/day; assay type: functional
# Mus musculus [3] = assay: Antimalarial activity of compound against multidrug-resistant strain of Plasmodium yoelii in 5 Swiss mice (Mus musculus) treated at a dose of 6.25 mg/Kg/day; assay type: functional
# Mus musculus [4] = assay: Antimalarial activity of compound against multidrug-resistant strain of Plasmodium yoelii in 5 Swiss mice (Mus musculus) treated at a dose of 100 mg/kg/day; assay type: functional
# Mus musculus [5] = assay: Antimalarial activity of compound against multidrug-resistant strain of Plasmodium yoelii in Swiss mice (Mus musculus) at a dose of 6.25 mg/kg/day (percent suppression on day 4); assay type: functional
# Mus musculus [6] = assay: Number of mice alive on day 28 treated with a dose of 50 mg/kg/day; assay type: functional
# Mus musculus [7] = assay: Number of mice alive on day 28 treated with a dose of 6.25 mg/kg/day; assay type: functional
# Mus musculus [8] = assay: Antimalarial activity of compound against multidrug-resistant strain of Plasmodium yoelii in Swiss mice (Mus musculus) at a dose of 12.5 mg/kg/day (percent suppression on day 4); assay type: functional
# Mus musculus [9] = assay: Antimalarial activity of compound against multidrug-resistant strain of Plasmodium yoelii in Swiss mice (Mus musculus) at a dose of 50 mg/kg/day (percent suppression on day 4); assay type: functional
# Mus musculus [10] = assay: Mean survival time of animals was calculated after administering a dose of 25 mg/kg/day during 28-day observation period; assay type: functional
# Mus musculus [11] = assay: Mean survival time of animals was calculated after administering a dose of 50 mg/kg/day during 28-day observation period; assay type: functional
# Mus musculus [12] = assay: Mean survival time of animals was calculated after administering a dose of 6.25 mg/Kg/day during 28-day observation period; assay type: functional
# Mus musculus [13] = assay: Number of mice alive on day 28 treated with a dose of 12.5 mg/kg/day; assay type: functional
# Mus musculus [14] = assay: Number of mice alive on day 28 treated with a dose of 25 mg/kg/day; assay type: functional
# Mus musculus [15] = assay: Mean survival time of animals was calculated after administering a dose of 12.5 mg/kg/day during 28-day observation period; assay type: functional
# Mus musculus [16] = assay: Antimalarial activity of compound against multidrug-resistant strain of Plasmodium yoelii in Swiss mice (Mus musculus) at a dose of 25 mg/kg/day (percent suppression on day 4); assay type: functional
# Mus musculus [17] = assay: Antimalarial activity of compound against multidrug-resistant strain of Plasmodium yoelii in 5 Swiss mice (Mus musculus) treated at a dose of 12.5 mg/Kg/day; assay type: functional
# [18] = Antimalarial activity of compound against multidrug-resistant strain of Plasmodium yoelii in Swiss mice (Mus musculus) at a dose of 100 mg/kg/day (percent suppression on day 4); toxic; assay type: organism-based; details: in vivo
# Mus musculus [19] = assay: Antimalarial activity of compound against multidrug-resistant strain of Plasmodium yoelii in 5 Swiss mice (Mus musculus) at a dose of 100 mg/kg/day; assay type: functional
# Mus musculus [20] = assay: Antimalarial activity of compound against multidrug-resistant strain of Plasmodium yoelii in 5 Swiss mice (Mus musculus) at a dose of 50 mg/kg/day; assay type: functional
# Mus musculus [21] = assay: Antimalarial activity of compound against multidrug-resistant strain of Plasmodium yoelii in Swiss mice (Mus musculus) at a dose of 50 mg/kg/day (percent suppression on day 4-nil); assay type: functional, organism-based
# Mus musculus [22] = assay: Antimalarial activity of compound against multidrug-resistant strain of Plasmodium yoelii in Swiss mice (Mus musculus) at a dose of 100 mg/kg/day (percent suppression on day 4); assay type: functional
smiles,measurement,setting,value
CCN(CC)CCCC(C)Nc1ccnc2cc(Cl)ccc12 (configuration not stated) [CHLOROQUINE],MIC,Plasmodium falciparum,0.04 µg/mL
[C-]#[N+]c1ccc2ccccc2c1,MIC,Plasmodium falciparum,50 µg/mL
[C-]#[N+]c1ccc(Br)cc1Br,MIC,Plasmodium falciparum,50 µg/mL
[C-]#[N+]C1CC[C@@]2(C)[C@@H](CC[C@@H]3[C@@H]2CC[C@]2(C)[C@@H]([C@H](C)CCCC(C)C)CC[C@@H]32)C1 (some centres not stated),MIC,Plasmodium falciparum,> 50 µg/mL
[C-]#[N+]C12CC3CC(CC(C3)C1)C2,No. of mice cured,Mus musculus [1],0
same,No. of mice cured,Mus musculus [2],2
same,No. of mice cured,Mus musculus [3],0
same,No. of mice cured,Mus musculus [4],0
same,Supression,Mus musculus [5],19%
same,Survival,Mus musculus [6],2
same,Survival,Mus musculus [7],0
same,Supression,Mus musculus [8],73%
same,Supression,Mus musculus [9],100%
same,MST,Mus musculus [10],12.8
same,MST,Mus musculus [11],16.3
same,MST,Mus musculus [12],8.2
same,Survival,Mus musculus [13],0
same,Survival,Mus musculus [14],1
same,MST,Mus musculus [15],11.8
same,Supression,Mus musculus [16],99.8%
same,No. of mice cured,Mus musculus [17],0
same,MIC,Plasmodium falciparum,0.4 µg/mL
same,Supression,[18],Toxic
[C-]#[N+]c1ccc(C(C)=O)cc1,No. of mice cured,Mus musculus [19],0
same,No. of mice cured,Mus musculus [20],0
same,Supression,Mus musculus [21],Nil
same,Supression,Mus musculus [22],35.72%
same,MIC,Plasmodium falciparum,2 µg/mL
[C-]#[N+]c1ccc(-c2ccccc2)cc1,No. of mice cured,Mus musculus [2],0
same,No. of mice cured,Mus musculus [4],0
same,Supression,Mus musculus [22],62.79%
same,Supression,Mus musculus [9],32.98%
same,MIC,Plasmodium falciparum,1 µg/mL
[C-]#[N+]c1ccc2c(c1)Cc1ccccc1-2,No. of mice cured,Mus musculus [2],0
same,No. of mice cured,Mus musculus [4],0
same,Supression,Mus musculus [22],21.35%
same,Supression,Mus musculus [9],6.34%
same,MIC,Plasmodium falciparum,2 µg/mL
[C-]#[N+][C@H]1CC[C@@]2(C)[C@@H](CC[C@@H]3[C@@H]2CC[C@]2(C)[C@@H]([C@H](C)CCCC(C)C)CC[C@@H]32)C1,MIC,Plasmodium falciparum,> 50 µg/mL
C[C@@H]1CC[C@H]2[C@@H](C)C(=O)O[C@@H]3O[C@@]4(C)CC[C@@H]1[C@]32OO4 [ARTEMISININ],MIC,Plasmodium falciparum,0.03 µg/mL
[C-]#[N+]c1cccc2ccccc12,MIC,Plasmodium falciparum,50 µg/mL
[C-]#[N+]C1C[C@H](C)CC[C@H]1C(C)C (some centres not stated),MIC,Plasmodium falciparum,50 µg/mL
